Experimental data published in patent US4347361A, “4,5α-Epoxy-3-hydroxy or methoxy-7-(1-hydroxy-alkyl or 1-oxoalkyl)morphinan-6-one compounds” (SISA, Incorporated, priority 1980, dated 1982).

What was measured:
[1] = tested on: male CD-1 mice (acetic acid writhing); test: acetic acid mouse writhing test (analgesic effects); type: in vivo, mice (male CD-1); settings: subcutaneous; for ED50: sc, 0.25 h, acetic acid i.p. 15 min post drug, read-out: ED50 (dose required to reduce the number of writhes by 50%); for % reduction of number of writhes (ED50 column, X%(Y)): at 10 mg/kg; for ED50: Ia at dose: at 10 (mg/kg), Ia not defined
Description: (A) Analgesic effects upon mice (acetic acid writhing test).
The analgesic effects of test compounds were determined in mice by use of the acetic acid writhing test described by B. A. Whittle, Brit. J. Pharmacol., 22:246 (1964). In this test at least three groups of five male CD-1 mice each were given subcutaneous doses of the test drug dissolved in either distilled water or distilled water acidified with HCl depending on the solubility of the compound. Fifteen (15) minutes post drug, 0.4 milliliter of a 0.75% or 1.0% or 0.6 milliliter of a 1.0% V/V acetic acid in distilled water solution was administered intraperitoneally. The number of writhes in a 20 minute interval beginning 5 minutes after the acetic acid injection were determined and compared with the number of writhes in control groups which had received only acetic acid.
Percent inhibition of writhing was calculated as: [formula]
The ED50 dose, i.e., the dose required to reduce the number of writhes by 50%, was determined graphically from a plot of % inhibition as a probit versus log dose. Confidence limits of 95% were calculated on the basis of those results falling in the range 16-84% inhibition. See Litchfield, J. T. and Wilcoxon, F., J. Pharmacol. Exp. Ther., 96:99, (1949).

[2] = tested on: male albino Wistar rats (morphine effect, tail flick); test: narcotic antagonist activity, modified rat tail flick test (inhibition of morphine effect); type: in vivo; settings: intraperitoneal; for ED50: ip, 10 min before ED80 dose of morphine s.c., read-out: AD50 (dose required to inhibit the morphine effect by 50%); for AD50: Ia at dose: at 10 (mg/kg), Ia not defined; for AD50: Ia at dose / AD50: X%(Y): vs ED80 morphine
Description: (B) Narcotic antagonist activity in rats (modified rat tail flick test).
The narcotic antagonist effects of test compounds were determined by a modification of the rat tail flick procedure of Harris and Pierson, J. Pharmacol. Exp. Ther. 143:141 (1964).
Male albino Wistar rats (100-120 g.) were used for this study. A rat's tail is so placed so as to cover a photocell. Heat is applied by a lamp in a reflector with a timer being connected to the lamp and photocell so that the timer goes on when the light is turned on and is turned off when the photocell is uncovered. A rheostat, incorporated into a heating lamp is used to adjust the intensity of the light falling on the tail of the rat such that the rat's control reaction time is from 1.2 to 5.8 seconds. Animals with a control reaction time outside this range are rejected. The rheostat adjustment is made only if a significant proportion (more than 1 out of every 10 rats) of the reaction times are outside the range of 1.2 to 5.8 seconds. Groups of five rats were used each time, and two control times were determined at least 30 minutes apart.
The test drug was given intraperitoneally and this was followed ten minutes later by an ED80 dose of morphine subcutaneously. The animals were retested at 20 minutes after the morphine injection. Control animals were given morphine only. […] The data were calculated as follows: [formula]
The data were plotted on log-probit paper and AD50 values, i.e., the dose required to inhibit the morphine effect by 50% within 95% confidence limits, were determined by the method of Litchfield and Wilcoxon.

| SMILES | ED50 [1] [mg/kg] | ED50 [2] [mg/kg] | further results |
| --- | --- | --- | --- |
| CCCC(=O)C1C[C@H]2[C@H]3Cc4ccc(O)c5c4[C@@]2(CCN3CC2CC2)[C@@H](O5)C1=O (stereo partly drawn) [TR-5476, 17-cyclopropylmethyl-4,5α-epoxy-3-hydroxy-7-butanoylmorphinan-6-one] | 4.65 | 2.55 |  |
| CC(C)C(C)(O)C1C[C@H]2[C@H]3Cc4ccc(O)c5c4[C@@]2(CCN3CC2CC2)[C@@H](O5)C1=O (stereo partly drawn) [TR-5572] | 7.8 | 2.2 |  |
| CCCC(C)(O)C1C[C@H]2[C@H]3Cc4ccc(O)c5c4[C@@]2(CCN3CC2CC2)[C@@H](O5)C1=O (stereo partly drawn) [TR-5543, 17-cyclopropylmethyl-4,5α-epoxy-3-hydroxy-7-(1-hydroxy-1-methylbutyl)morphinan-6-one] | 1.8 | 2.8 |  |
| CCCCCC(=O)C1C[C@H]2[C@H]3Cc4ccc(OC)c5c4[C@@]2(CCN3C)[C@@H](O5)C1=O (stereo partly drawn) [MLS-5682] | 4 |  |  |
| CCCCC(C)(O)C1C[C@H]2[C@H]3Cc4ccc(OC)c5c4[C@@]2(CCN3CC2CC2)[C@@H](O5)C1=O (stereo partly drawn) [TR-5544] |  |  | % reduction of number of writhes (ED50 column, X%(Y)) [1]: 10%; AD50: Ia at dose [2]: Ia |
| COc1ccc2c3c1O[C@H]1C(=O)C(C(=O)C(C)C)C[C@H]4[C@@H](C2)N(CC2CC2)CC[C@]314 (stereo partly drawn) [TR-5509] | 7.5 | 2.8 |  |
| CCCCC(=O)C1C[C@H]2[C@H]3Cc4ccc(O)c5c4[C@@]2(CCN3CC2CC2)[C@@H](O5)C1=O (stereo partly drawn) [TR-5520] | 1.59 |  | AD50: X%(Y) ([2]; at 10 mg/kg): 77% |
| CCC(=O)C1C[C@H]2[C@H]3Cc4ccc(OC)c5c4[C@@]2(CCN3CC2CC2)[C@@H](O5)C1=O (stereo partly drawn) [TR-5570] |  | 6.5 | % reduction of number of writhes (ED50 column, X%(Y)) [1]: 11% |
| CC(=O)C1C[C@H]2[C@H]3Cc4ccc(O)c5c4[C@@]2(CCN3CC2CC2)[C@@H](O5)C1=O (stereo partly drawn) [TR-5475] | 4.05 | 1.3 |  |
| CCCCC(C)(O)C1C[C@H]2[C@H]3Cc4ccc(O)c5c4[C@@]2(CCN3CC2CC2)[C@@H](O5)C1=O (stereo partly drawn) [TR-5551] |  | 2.5 | % reduction of number of writhes (ED50 column, X%(Y)) [1]: 40% |
| CCC(=O)C1C[C@H]2[C@H]3Cc4ccc(O)c5c4[C@@]2(CCN3CC2CC2)[C@@H](O5)C1=O (stereo partly drawn) [TR-5573] |  | 0.51 | ED50: Ia at dose [1]: Ia |
| COc1ccc2c3c1O[C@H]1C(=O)C(C(=O)c4ccccc4)C[C@H]4[C@@H](C2)N(CC2CC2)CC[C@]314 (stereo partly drawn) [TR-5501] | 11.3 | 8 |  |
| O=C(c1ccccc1)C1C[C@H]2[C@H]3Cc4ccc(O)c5c4[C@@]2(CCN3CC2CC2)[C@@H](O5)C1=O (stereo partly drawn) [TR-5506] | 4.35 | 0.24 |  |
| COc1ccc2c3c1O[C@H]1C(=O)C(C(=O)C(C)(C)C)C[C@H]4[C@@H](C2)N(CC2CC2)CC[C@]314 (stereo partly drawn) [TR-5571] |  |  | ED50: Ia at dose [1]: Ia; AD50: X%(Y) ([2]; at 10 mg/kg): 13% |
| CCCCCCC(=O)C1C[C@H]2[C@H]3Cc4ccc(OC)c5c4[C@@]2(CCN3CC2CC2)[C@@H](O5)C1=O (stereo partly drawn) [TR-5539] | > 10 | > 10 |  |
| CCCC(=O)C1C[C@H]2[C@H]3Cc4ccc(OC)c5c4[C@@]2(CCN3C)[C@@H](O5)C1=O (stereo partly drawn) [MLS-5692] |  |  | ED50: Ia at dose [1]: Ia |
| O=C(c1ccc(F)cc1)C1C[C@H]2[C@H]3Cc4ccc(O)c5c4[C@@]2(CCN3CC2CC2)[C@@H](O5)C1=O (stereo partly drawn) [TR-5579] |  |  | % reduction of number of writhes (ED50 column, X%(Y)) [1]: 29%; AD50: X%(Y) ([2]; at 10 mg/kg): 45% |
| CCCCCC(=O)C1C[C@H]2[C@H]3Cc4ccc(OC)c5c4[C@@]2(CCN3CC2CC2)[C@@H](O5)C1=O (stereo partly drawn) [TR-5504] | 5.7 |  | AD50: Ia at dose [2]: Ia |
| CN1CC[C@]23c4c5ccc(O)c4O[C@H]2C(=O)C(C(=O)CCCc2ccccc2)C[C@H]3[C@H]1C5 (stereo partly drawn) [MLS-5691, 7-(4-Phenylbutyroyl)Dihydromorphone] | 0.0052 |  |  |

| SMILES | ED50 [1] [mg/kg] | ED50 [2] [mg/kg] | further results |
| --- | --- | --- | --- |
| COc1ccc2c3c1O[C@H]1C(=O)C(C(C)(C)O)C[C@H]4[C@@H](C2)N(CC2CC2)CC[C@]314 (stereo partly drawn) [TR-5479] |  |  | ED50: Ia at dose [1]: Ia; AD50: X%(Y) ([2]; at 10 mg/kg): 41% |
| CCCC(C)(O)C1C[C@H]2[C@H]3Cc4ccc(OC)c5c4[C@@]2(CCN3CC2CC2)[C@@H](O5)C1=O (stereo partly drawn) [TR-5499] | 0.42 |  | AD50: X%(Y) ([2]; at 7 mg/kg): 12% |
| CN1CC[C@]23c4c5ccc(O)c4O[C@H]2C(=O)C(C(=O)CCc2ccccc2)C[C@H]3[C@H]1C5 (stereo partly drawn) [MLS-5690] | 0.105 |  |  |
| CCCCCC(=O)C1C[C@H]2[C@H]3Cc4ccc(O)c5c4[C@@]2(CCN3CC2CC2)[C@@H](O5)C1=O (stereo partly drawn) [TR-5505] | 0.29 | 22 |  |
| COc1ccc2c3c1O[C@H]1C(=O)C(C(=O)c4ccc(F)cc4)C[C@H]4[C@@H](C2)N(CC2CC2)CC[C@]314 (stereo partly drawn) [TR-5575] |  |  | ED50: Ia at dose [1]: Ia; AD50: X%(Y) ([2]; at 10 mg/kg): 17% |
| CC(C)(C)CC(=O)C1C[C@H]2[C@H]3Cc4ccc(O)c5c4[C@@]2(CCN3CC2CC2)[C@@H](O5)C1=O (stereo partly drawn) [TR-5574] |  | > 10 | ED50: Ia at dose [1]: Ia |
| CC(C)C(=O)C1C[C@H]2[C@H]3Cc4ccc(O)c5c4[C@@]2(CCN3CC2CC2)[C@@H](O5)C1=O (stereo partly drawn) [TR-5511] | > 10 | 0.81 |  |
| COc1ccc2c3c1O[C@H]1C(=O)C(C(=O)CCCc4ccccc4)C[C@H]4[C@@H](C2)N(C)CC[C@]314 (stereo partly drawn) [MLS-5683, 7-(4-Phenylbutyroyl)Dihydrocodeinone] | 0.41 |  |  |
| COc1ccc2c3c1O[C@H]1C(=O)C(C(C)(C)O)C[C@H]4[C@@H](C2)N(C)CC[C@]314 (stereo partly drawn) [TR-5492] | 4.5 |  |  |
| CCCC(=O)C1C[C@H]2[C@H]3Cc4ccc(O)c5c4[C@@]2(CCN3C)[C@@H](O5)C1=O (stereo partly drawn) [MLS-5695] | 5.25 |  |  |
| COc1ccc2c3c1O[C@H]1C(=O)C(C(C)=O)C[C@H]4[C@@H](C2)N(CC2CC2)CC[C@]314 (stereo partly drawn) [TR-5463] |  |  | % reduction of number of writhes (ED50 column, X%(Y)) [1]: 9%; AD50: Ia at dose [2]: Ia |
| COc1ccc2c3c1O[C@H]1C(=O)C(C(=O)Cc4ccccc4)C[C@H]4[C@@H](C2)N(CC2CC2)CC[C@]314 (stereo partly drawn) [TR-5577] |  |  | % reduction of number of writhes (ED50 column, X%(Y)) [1]: 21%; AD50: Ia at dose [2]: Ia |
| CCCC(=O)C1C[C@H]2[C@H]3Cc4ccc(OC)c5c4[C@@]2(CCN3CC2CC2)[C@@H](O5)C1=O (stereo partly drawn) [TR-5464] | 2.81 | 8.1 |  |
| CCCCCC(C)(O)C1C[C@H]2[C@H]3Cc4ccc(O)c5c4[C@@]2(CCN3C)[C@@H](O5)C1=O (stereo partly drawn) [MLS-5694] | 2.9 |  |  |
| CCCCCC(=O)C1C[C@H]2[C@H]3Cc4ccc(O)c5c4[C@@]2(CCN3C)[C@@H](O5)C1=O (stereo partly drawn) [MLS-5689] | 0.76 |  |  |
| CCCCCCC(=O)C1C[C@H]2[C@H]3Cc4ccc(O)c5c4[C@@]2(CCN3CC2CC2)[C@@H](O5)C1=O (stereo partly drawn) [TR-5540] | 0.4 |  | AD50: Ia at dose [2]: Ia |
| CCCCC(=O)C1C[C@H]2[C@H]3Cc4ccc(OC)c5c4[C@@]2(CCN3CC2CC2)[C@@H](O5)C1=O (stereo partly drawn) [TR-5519] | > 10 |  | AD50: Ia at dose [2]: Ia |
| CCCCCC(C)(O)C1C[C@H]2[C@H]3Cc4ccc(O)c5c4[C@@]2(CCN3CC2CC2)[C@@H](O5)C1=O (stereo partly drawn) [TR-5538] | 0.28 | 6.6 |  |
| COc1ccc2c3c1O[C@H]1C(=O)C(C(=O)CCc4ccccc4)C[C@H]4[C@@H](C2)N(C)CC[C@]314 (stereo partly drawn) [MLS-5688H] | 0.62 |  |  |
